Assay results as given in the supplement of paper PMC10307832.

compound: CC1(C)CNc2cc(NC(=O)c3cccnc3NCc3ccncc3)ccc21 [Motesanib] + CC1(C)CCC(c2ccc(Cl)cc2)=C(CN2CCN(c3ccc(C(=O)NS(=O)(=O)c4ccc(N[C@H](CCN5CCOCC5)CSc5ccccc5)c(S(=O)(=O)C(F)(F)F)c4)cc3)CC2)C1 [Navitoclax] (partner 0.5 µM); test: relative viability (nuclei count vs DMSO), 5 days (fraction); higher = more cells survive; settings: first compound 0.01 µM
In short: (§1)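 Dosing by pin tool came one day after lung cancer cell lines were seeded in 1536-well plates, using either one drug or a fixed anchor-drug dose plus five library-drug doses (not always all listed) in √10 steps. After 5 days, nuclei were counted on 4× images. Relative viability is treated-well nuclei count divided by vehicle-well nuclei count, and values are medians of duplicate plates.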

Row | Cell Line | relative viability
1 | NCI-H1944 | 1.06
2 | NCI-H1975 | 1.11
3 | RERF-LC-KJ | 0.705
4 | PC-3 [JPC-3] | 0.83

same assay, conditions: first compound 0.03162 µM

Row | Cell Line | relative viability
5 | NCI-H1944 | 1.03
6 | NCI-H1975 | 1.12
7 | RERF-LC-KJ | 1.01
8 | PC-3 [JPC-3] | 0.883

same assay, conditions: first compound 0.1 µM

Row | Cell Line | relative viability
9 | NCI-H1944 | 1.07
10 | NCI-H1975 | 1.05
11 | RERF-LC-KJ | 1.29
12 | PC-3 [JPC-3] | 0.802

same assay, conditions: first compound 0.3162 µM

Row | Cell Line | relative viability
13 | NCI-H1944 | 1.04
14 | NCI-H1975 | 1.11
15 | RERF-LC-KJ | 0.811
16 | PC-3 [JPC-3] | 0.779

same assay, conditions: first compound 1 µM

Row | Cell Line | relative viability
17 | NCI-H1944 | 1.15
18 | NCI-H1975 | 1.26
19 | RERF-LC-KJ | 0.877
20 | PC-3 [JPC-3] | 0.827

compound: C[C@@]1(C(=O)Nc2ccc(F)nc2)CCCN1c1nc(Nc2cc(C3CC3)n[nH]2)c2cccn2n1 + CC1(C)CCC(c2ccc(Cl)cc2)=C(CN2CCN(c3ccc(C(=O)NS(=O)(=O)c4ccc(N[C@H](CCN5CCOCC5)CSc5ccccc5)c(S(=O)(=O)C(F)(F)F)c4)cc3)CC2)C1 [Navitoclax] (partner 0.5 µM); test: as above; settings: first compound 0.04 µM
In short: as §1

Row | Cell Line | relative viability
21 | NCI-H1944 | 0.991
22 | NCI-H1975 | 0.988
23 | RERF-LC-KJ | 0.842
24 | PC-3 [JPC-3] | 0.777

same assay, conditions: first compound 0.1265 µM

Row | Cell Line | relative viability
25 | NCI-H1944 | 0.947
26 | NCI-H1975 | 1.06
27 | RERF-LC-KJ | 0.579
28 | PC-3 [JPC-3] | 0.716

same assay, conditions: first compound 0.4 µM

Row | Cell Line | relative viability
29 | NCI-H1944 | 0.981
30 | NCI-H1975 | 0.773
31 | RERF-LC-KJ | 0.846
32 | PC-3 [JPC-3] | 0.789

same assay, conditions: first compound 1.265 µM

Row | Cell Line | relative viability
33 | NCI-H1944 | 1.08
34 | NCI-H1975 | 0.765
35 | RERF-LC-KJ | 0.592
36 | PC-3 [JPC-3] | 0.743

compound: C[C@@]1(C(=O)Nc2ccc(F)nc2)CCCN1c1nc(Nc2cc(C3CC3)n[nH]2)c2cccn2n1 + COc1cc2c(Oc3ccc(NC(=O)C4(C(=O)Nc5ccc(F)cc5)CC4)cc3F)ccnc2cc1OCCCN1CCOCC1 [Foretinib] (partner 0.25 µM); test: as above; settings: first compound 0.04 µM
In short: as §1

Row | Cell Line | relative viability
37 | NCI-H1944 | 0.764
38 | NCI-H1975 | 0.861
39 | RERF-LC-KJ | 0.815
40 | PC-3 [JPC-3] | 1.08

same assay, conditions: first compound 0.1265 µM

Row | Cell Line | relative viability
41 | NCI-H1944 | 0.676
42 | NCI-H1975 | 0.962
43 | RERF-LC-KJ | 0.777
44 | PC-3 [JPC-3] | 1.02

same assay, conditions: first compound 0.4 µM

Row | Cell Line | relative viability
45 | NCI-H1944 | 0.496
46 | NCI-H1975 | 0.88
47 | RERF-LC-KJ | 0.659
48 | PC-3 [JPC-3] | 0.959

same assay, conditions: first compound 1.265 µM

Row | Cell Line | relative viability
49 | NCI-H1944 | 0.649
50 | NCI-H1975 | 0.716
51 | RERF-LC-KJ | 0.714
52 | PC-3 [JPC-3] | 1.34

compound: C[C@@]1(C(=O)Nc2ccc(F)nc2)CCCN1c1nc(Nc2cc(C3CC3)n[nH]2)c2cccn2n1 + Nc1nc2[nH]cc(CCc3ccc(C(=O)N[C@@H](CCC(=O)O)C(=O)O)cc3)c2c(=O)[nH]1 [Pemetrexed] (partner 0.2 µM); test: as above; settings: first compound 0.04 µM
In short: as §1

Row | Cell Line | relative viability
53 | NCI-H1944 | 0.605
54 | NCI-H1975 | 0.302
55 | RERF-LC-KJ | 0.467
56 | PC-3 [JPC-3] | 1.19

same assay, conditions: first compound 0.1265 µM

Row | Cell Line | relative viability
57 | NCI-H1944 | 0.554
58 | NCI-H1975 | 0.298
59 | RERF-LC-KJ | 0.421
60 | PC-3 [JPC-3] | 1.03

same assay, conditions: first compound 0.4 µM

Row | Cell Line | relative viability
61 | NCI-H1944 | 0.497
62 | NCI-H1975 | 0.274
63 | RERF-LC-KJ | 0.438
64 | PC-3 [JPC-3] | 1.04

same assay, conditions: first compound 1.265 µM

Row | Cell Line | relative viability
65 | NCI-H1944 | 0.544
66 | NCI-H1975 | 0.268
67 | RERF-LC-KJ | 0.436
68 | PC-3 [JPC-3] | 0.839
